Experimental data taken from patent US20230270692A1, “COMPOUNDS FOR CHRONIC DISORDERS” (Pillai Universal LLC, priority 2020, published 2023).
Values after ≈ are worked out from the molar mass of the structure shown.

Columns and labels:
[1] = Acute oral toxicity (OECD 423); assay type: in vivo
Procedure: Experimental Design: The assay of acute toxicity was performed according to the Organization for Economic Cooperation and Development (OECD) guideline 423 (OECD, 2001a). A total of 60 mice weighing between 27 and 37 g were randomly divided into six experimental groups of 10 mice each (5 males and 5 females per group). After fasting overnight Compound I was administered to each treatment group at single doses of 200, 500 1000, 2000, mg/kg, respectively, by oral gavage. The control groups were treated with the same volume of distilled water. After dosing, all animals were observed individually for mortality and changes in general behavior during the first 30 min, then at 2, 4, 6, 10 and 24 h following treatment. Symptoms of toxicity such as hypo-activity, piloerection, breathing difficulty, tremors, and convulsion were evaluated after administration of the various doses. The LD 50 value was determined according to the method described by the OECD Guidelines 423 (OECD, 2001a). During the remaining experimental period, the animal observation was performed at least once per day for the post-dosing period of 14 days. Body weights were measured at the initiation of treatment, and on days 4, 7, 11 and 14 after administration. On the 14th day, the mice were sacrificed under anesthesia, and vital organs (heart, kidneys, lung, spleen and liver) were removed for macroscopic examination.

[2] = test system: Vero cells; details: any of the concentrations tested
[3] = test system: SARS-CoV-2; assay type: in vivo; details: PO 250 mg B.I.D. over 7 days
[4] = test system: SARS-CoV-2; assay: Inactivation of SARS-CoV-2 upon direct exposure; details: Severe acute respiratory syndrome coronavirus 2, read-out: 50% reduction (IC50), inactivation of SARS-CoV-2
[5] = test system: HUMSCs; assay: Neuronal differentiation of human umbilical cord stem cells; assay type: cell-based
Procedure: After treatment at 72 h, the ratio of neuron-like cells reached high, with the cell bodies contracted and the protuberances lengthened further. The MSCs retained this morphology for the duration of the induction.

[6] = test system: PANC-1 xenograft; assay: PANC-1 xenograft mouse model; assay type: in vivo
Procedure: Study Design: A PANC-1 xenograft mouse model was carried out according to the experimental design described in FIG. 21A. Tumor volume was monitored over a 30-day period upon administration of PBS alone (vehicle control), 25 mg/kg gemcitabine, and 10 mg/kg Compound I.

[7] = Reduction of hydroxychloroquine side effects; details: treatment of COVID-19
Text: Coronavirus disease (COVID-19) is an infectious disease caused by virus SARS-CoV-2. The disease causes respiratory illness with symptoms such as a cough, fever, and in more severe cases, difficulty breathing. At present, one drug that may be effective in treating COVID-19 is hydroxychloroquine. However the drug hydroxychloroquine causes serious side effects including cardiovascular diseases, eye damage, mild or severe bronchospasm, and also affects mental health. The effect of Compound I of the present invention in reducing the side effects associated with hydroxychloroquine was studied according to methods known in the art.

[8] = test system: Pancreatic adenocarcinoma cells (PANC); assay: MTT cell viability of pancreatic cancer cells; assay type: cell-based, Human
Procedure: The synthesized compounds of Formula 1-4 were evaluated for cell proliferation, apoptosis, cell cycle arrest, the generation of reactive oxygen species and calcium were measured using MTT assay and flow cytometry, respectively. The expression of apoptosis- and proliferation-related proteins was determined by western blotting. The effect of molecules on apoptosis-related mRNA expression in cancer cells was detected by RT-PCR.
Changes in cell morphology were detected by the presence of cell membrane blebbing, chromatin condensation, and formation of apoptotic bodies (FIG. 10A).

[9] = test system: cytokines and chemokines in the lungs; assay: Xenograft stage 4 metastasized breast cancer animal model, lung cytokines and pathology; assay type: in vivo
Text: In a xenograft stage 4 metastasized breast cancer animal model, Compound I decreased production of cytokines (tumor necrosis factor alpha [TNF-α] and interleukin-6 [IL6]) and chemokines (CXCL10, CCL2, CCL3, CCL5), and were correlated with migration of Natural Killer cells and macrophages and observed in the lungs.

[10] = test system: cytotoxic cells, macrophages, NK cell and DC; assay: Immune response
Text: Compound I has the ability to activate CD4+ helper […] and generates an immune response in the body to protect against viral infections, Specifically, Compound I increases the number and activity of cytotoxic cells and promotes the activation of macrophages NK cell and DC which facilitate APC to CD4+ and CD8+ through capture, internalization, processing and presentation of antigens via MHC class I and II molecules.

[11] = in vitro; details: African green monkey
[12] = test system: cancer stem cells; assay: Cancer stem cell marker expression; assay type: cell-based
Text: CSCs have significant impact on the tumor progression, drug resistance, recurrence and metastasis in different types of malignancies. Conventional cancer chemotherapy often fails as most anti-cancer drugs are not effective against drug-resistant CSCs. These surviving CSCs lead to relapse and metastasis. Most studies report that conventional therapeutic agents have limited access to the CSCs due to their hypoxic microenvironment and distant location from the vasculature that retards the efficacy of anti-CSC drugs (FIG. 14). However, the disclosed compounds may overcome this limitation and may penetrate into a deeper location and destroy CSCs. Accordingly, in embodiments, the present invention provides a method of inhibiting cancer stem cell survival and/or self-renewal comprising administering to a cancer stem cell an effective amount of a compound disclosed herein, e.g., Compound I (FIG. 13).
The compounds of the disclosure inhibited the expression of the genes in the follow cancers (FIG. 18): • Breast: CD44+CD24−/low Lineage−, ALDH-1high • Liver: CD133+, CD49f+, CD90+ • Colon: CD133+, CD44+, CD166+, EpCAM+, CD24+ • Pancreatic: CD133+, CD44+, EpCAM+, CD24+ • Leukemia: CD34+CD38− • Lungs: CD133+, ABCG2^High • Leukemia: CD34+, CD38−, HLA−, DR−, CD71−, CD90−, CD117−, CD123+
Reduction of stem cell surface marker expressions are seen within 1 hour and up to a maximum of […]. […]

In the case of `COc1cc(/C=C/C(=O)/C=C/C=C/c2cc(OC)c(O)c(OC)c2)cc(OC)c1` [Compound I], the treatment related death ([1]; acute, 14-day observation, both sexes) is reported as “no treatment related death was observed”, the LD50 at 14 days ([1]; both sexes, mouse, in vivo, oral, read-out: median lethal dose (LD50)) is reported as over 2000 mg/kg and the GHS classification ([1]; both, mouse, in vivo, 14 days) is reported as “Category 5”. The Toxicity [2] was “no toxicity was observed”, the “time to decrease of overactivated cytokine-secreting immune cells” value [3] was 3 to 5 days and the “time to improved pulmonary function and symptoms” value [3] was 4 to 5 days. For the same compound, the IC50 [4] was 1 µM, the “Neuronal cell type formation” value [5] was “induced” and the imaging studies ([6]; 10 mg/kg) was “no detectable tumor”. The tumor volume ([6]; day 5 to day 30, 25 mg/kg gemcitabine, 10 mg/kg Compound I) was “decrease”, the survival ([6]; mouse, in vivo) was “improved survival” and the “effect on hydroxychloroquine side effects” value [7] was “assists in potentiating hydroxychloroquine by reducing the side effects”. The cell viability ([8]; 24 and 48 h, 1-100 μg/mL) was “decreased significantly in time- and dose-dependent manners”, the cytotoxicity at 10 µg/mL ([8]; Homo sapiens, Pancreatic cancer cell, read-out: decrease in viable cells) was about 65.5% and the IC50 ([8]; Homo sapiens, Pancreatic cancer cell, PANC cells, after 24 hours of exposure) was 5.74 ± 0.02 µg/mL (≈ 14.5 µM). The lung histopathology ([9]; by day 7) was “normal lung pathology without any pneumonitis observed”, the “production of cytokines (TNF-α, IL6) and chemokines (CXCL10, CCL2, CCL3, CCL5)” value ([9]; in vivo) was “decreased” and the “number and activity of cytotoxic cells” value [10] was “increases”. For the same compound, the CC50 [11] was over 15 µM and the “cancer stem cell markers / gene expression” value [12] was “inhibition”.
